Results from article PMC12290673, “Antileishmanial and Antitoxoplasmal Activities of 1,4-Dihydropyridines” (ACS Omega, 2025).
Read-outs that look alike come from different tables or passages of the source.

Columns and labels:
[1] = system: Vero cells; test: Cytotoxicity assay (MTT), Vero cells; type: cell-based, African Green Monkey; conditions: Chlorocebus sabaeus, 72 h, mean ± SD
Method: (§1) The MTT colorimetric assay was conducted to assess the cytotoxicity of the compounds according to a method described previously. Briefly, Vero cells or macrophages were cultured in 96-well plates (5 × 10^3 cells/well/200 μL) in RPMI 1640 medium with 10% FBS at 37 °C and under 5% CO2 for 24 h. Thereafter, PBS was used to wash the cells. Then, the compounds in RPMI complete medium with 10% FBS (at varying concentrations of 50, 25, 12.5, 6.25, 3.13, 1.65, 0.75, or 0.37 μg mL^–1) were added to 96-well plates and incubated for 72 h. Cells treated with a medium containing only DMSO (1%) were used as the negative control. After washing, MTT (1 mg mL^–1 in RPMI 1640 medium) was added to each well. The cells were incubated for 4 h, and the supernatant was removed. Next, 150 μL of DMSO was added, and a microplate absorbance spectrophotometer was applied for colorimetric analysis (λ = 540 nm). Cytotoxic effects were expressed by IC50 values (concentration that caused a 50% reduction of viable cells). The experiment was performed in triplicate.

[2] = system: L. major amastigotes; test: Activity against L. major amastigotes in peritoneal macrophages (percentage of infected macrophages, Giemsa, 72 h); type: cell-based, Leishmania major; conditions: intracellular amastigotes, mean ± SD, read-out: EC50 L. major ama
Method: (§2) L. major promastigotes were isolated and maintained according to a described method. BALB/c mice were injected at the hind footpads with 1 × 10^6 L. major metacyclic promastigotes. L. major amastigotes were collected from the infected mice. After 8 weeks had elapsed since inoculation, Schneider’s medium (Invitrogen, USA) containing antibiotics and 10% FBS was used to transform isolated amastigotes into promastigotes by incubation at 26 °C. Amastigote-derived promastigotes with less than five in vitro passages were only used for infection.
(§3) Female BALB/c mouse peritoneal macrophages (6–8 weeks old) were used to culture L. major amastigotes to assess the activity of the compounds against amastigotes. Briefly, 1 mL of 3% Brewer’s thioglycollate medium/mouse was injected into the peritoneal cavity. After 4 days, the abdominal skin was removed to expose the peritoneal wall. Then, 3 mL of RPMI 1640 medium was injected before cells were collected by aspiration, whereupon 96-well plates containing RPMI 1640 medium with 10% FBS were used to culture 5 × 10^4 cells/well, which were incubated at 37 °C under 5% CO2 for 4 h. After washing with PBS, RPMI 1640 medium containing 5 × 10^5 promastigotes were added to each well. Next, the cells were incubated at 37 °C under humidified 5% CO2 for 24 h to enhance infection and differentiation of amastigotes. Washing with PBS several times removed free promastigotes. Fresh complete RPMI 1640 medium containing one of the tested compounds or AmB at the desired final concentration (50, 25, 12.5, 6.25, 3.13, 1.65, 0.75, or 0.37 μg mL^–1) was added and incubated at 37 °C under a humidified 5% CO2 atmosphere for 72 h. DMSO (1%), only in complete RPMI media, was used as the negative control. The percentage of infected macrophages was assessed microscopically after the medium was removed, followed by washing with PBS, fixation with methanol, and staining with Giemsa. The reading was performed in triplicate. Handling of the laboratory animals followed the instructions and rules of the Committee of Research Ethics, Deanship of Scientific Research, Qassim University, permission number 20–03–20.

[3] = system: L. major promastigotes; test: Activity against L. major promastigotes (MTT, 72 h); type: cell-based, Leishmania major; conditions: mean ± SD, read-out: EC50 L. major prom
Method: as §2
To assess the activity of the compounds against L. major promastigotes, 10^6 promastigotes/mL were cultured in 96-well plates in Schneider’s medium with 10% FBS. Then, the compounds or amphotericin B (AmB) were added to obtain the final concentrations (50, 25, 12.5, 6.25, 3.13, 1.65, 0.75, or 0.37 μg mL^–1). Negative control wells contained cultures with DMSO (1%) only. Plates were incubated at 26 °C for 72 h to evaluate the antiproliferative effect. The colorimetric MTT method was used to count viable promastigotes under a microplate absorbance spectrophotometer (xMark, Bio-Rad, USA) at 570 nm. The experiment was performed in triplicate.

[4] = system: macrophages; test: Cytotoxicity assay (MTT), macrophages; type: cell-based, BALB/c mouse; conditions: Mus musculus, Macrophage; 72 h, mean ± SD; read-out: IC50 macro
Method: as §3, §1

[5] = system: T. gondii tachyzoites (RH strain); test: Anti-Toxoplasma activity (infection index in Vero cells, 72 h); type: cell-based, Toxoplasma gondii; conditions: mean ± SD
Method: Tachyzoites of the T. gondii RH strain were cultivated in Vero cells according to a published method. Complete RPMI 1640 medium (Invitrogen, USA) with 10% fetal bovine serum (FBS, Invitrogen, USA) was used to culture Vero cells in 96-well plates (5 × 10^3 cells/well in 200 μL of medium), which were incubated at 37 °C and under 5% CO2 for 24 h. This was followed by washing with phosphate-buffered saline (PBS) to remove the medium. Then, RPMI 1640 medium with 2% FBS containing T. gondii tachyzoites (RH strain) at a ratio of 5 (parasite): 1 (Vero cells) was added. After incubation at 37 °C and under 5% CO2 for 5 h, the cells were washed with PBS and overlaid with medium containing one of the tested compounds or atovaquone (ATO) at 50, 25, 12.5, 6.25, 3.13, 1.65, 0.75, or 0.37 μg mL^–1.
After incubation at 37 °C and under 5% CO2 for 72 h, the cells were stained with 1% toluidine before being examined under an inverted photomicroscope (MCD-400, Leica, Japan) to determine the T. gondii infection index (number of infected cells from 200 tested cells). The experiment was performed in triplicate.

SMILES: CCOC(=O)C1=C(C)NC(C)=C(C(=O)OCC)C1c1cccc(F)c1 [Compound 21]
- IC50 [1]: > 59.9 µM
- EC50 ([2]; Leishmania major): > 59.9 µM
- EC50 ([3]; Leishmania major): > 59.9 µM
- IC50 [4]: > 59.9 µM
- EC50 ([5]; Toxoplasma gondii, Vero): > 59.9 µM

SMILES: CCOC(=O)C1=C(C)NC2=C(C(=O)CC(C)(C)C2)C1c1ccc(N(C)C)cc1 (centres unmarked) [Compound 5]
- IC50 [1]: 49.4 ± 8.8 µM
- EC50 ([2]; Leishmania major): > 54.4 µM
- EC50 ([3]; Leishmania major): > 54.4 µM
- IC50 [4]: 49.9 ± 7.4 µM
- EC50 ([5]; Toxoplasma gondii, Vero): 29.5 ± 4.1 µM

SMILES: CCOC(=O)C1=C(C)NC(C)=C(C(=O)OCC)C1c1ccc(Br)cc1 [Compound 20]
- IC50 [1]: 35 ± 5.9 µM
- EC50 ([2]; Leishmania major): > 50.9 µM
- EC50 ([3]; Leishmania major): > 50.9 µM
- IC50 [4]: 44.8 ± 8.2 µM
- EC50 ([5]; Toxoplasma gondii, Vero): > 50.9 µM

SMILES: CCOC(=O)C1=C(C)NC2=C(C(=O)CC(C)(C)C2)C1c1cccc(Cl)c1 (centres unmarked) [Compound 8]
- IC50 [1]: > 55.6 µM
- EC50 ([2]; Leishmania major): > 55.6 µM
- EC50 ([3]; Leishmania major): > 55.6 µM
- IC50 [4]: > 55.6 µM
- EC50 ([5]; Toxoplasma gondii, Vero): > 55.6 µM

SMILES: CCOC(=O)C1=C(C)NC(C)=C(C(=O)OCC)C1c1ccc(O)c(OC)c1 [Compound 23]
- IC50 [1]: 22.1 ± 3.2 µM
- EC50 ([2]; Leishmania major): > 55.4 µM
- EC50 ([3]; Leishmania major): > 55.4 µM
- IC50 [4]: 40.5 ± 6.8 µM
- EC50 ([5]; Toxoplasma gondii, Vero): < 50 µM
- EC50 [5]: 29.8 ± 4.8 µM

SMILES: CCOC(=O)C1=C(C)NC2=C(C(=O)CC(C)(C)C2)C1c1ccc(Br)cc1 (centres unmarked) [Compound 6]
- IC50 [1]: 17.4 ± 2.9 µM
- EC50 ([2]; Leishmania major): > 49.7 µM
- EC50 ([3]; Leishmania major): > 49.7 µM
- IC50 [4]: 23.4 ± 3.5 µM
- EC50 ([5]; Toxoplasma gondii, Vero): 23.4 ± 3.5 µM

SMILES: CCOC(=O)C1=C(C)NC2=C(C(=O)CC(C)(C)C2)C1c1ccccc1 (centres unmarked) [Compound 1]
- IC50 [1]: > 61.3 µM
- EC50 ([2]; Leishmania major): > 61.3 µM
- EC50 ([3]; Leishmania major): > 61.3 µM
- IC50 [4]: > 61.3 µM
- EC50 ([5]; Toxoplasma gondii, Vero): > 61.3 µM

SMILES: CCOC(=O)C1=C(C)NC2=C(C(=O)CC(C)(C)C2)C1c1cccc([N+](=O)[O-])c1 (centres unmarked) [Compound 10]
- IC50 [1]: 10.7 ± 2.1 µM
- EC50 ([2]; Leishmania major): 26.3 ± 3.7 µM
- EC50 ([3]; Leishmania major): > 54.1 µM
- IC50 [4]: 24.5 ± 3.6 µM
- EC50 ([5]; Toxoplasma gondii, Vero): 16.4 ± 2.5 µM

SMILES: CCOC(=O)C1=C(C)NC2=C(C(=O)CC(C)(C)C2)C1c1ccco1 (centres unmarked) [Compound 15]
- IC50 [1]: > 51.3 µM
- EC50 ([2]; Leishmania major): > 51.3 µM
- EC50 ([3]; Leishmania major): < 50 µM
- EC50 [3]: 40 ± 6.4 µM
- IC50 [4]: > 51.3 µM
- EC50 ([5]; Toxoplasma gondii, Vero): > 51.3 µM

SMILES: CCOC(=O)C1=C(C)NC(C)=C(C(=O)OCC)C1c1ccc(OCc2ccccc2)cc1 [Compound 19]
- IC50 [1]: 33.5 ± 6.2 µM
- EC50 ([2]; Leishmania major): > 47.8 µM
- EC50 ([3]; Leishmania major): > 47.8 µM
- IC50 [4]: 43.4 ± 7.5 µM
- EC50 ([5]; Toxoplasma gondii, Vero): > 47.8 µM

SMILES: CCOC(=O)C1=C(C)NC(C)=C(C(=O)OCC)C1c1ccc(OC)cc1 [Compound 18]
- IC50 [1]: 45.4 ± 7.8 µM
- EC50 ([2]; Leishmania major): > 57.9 µM
- EC50 ([3]; Leishmania major): > 57.9 µM
- IC50 [4]: > 57.9 µM
- EC50 ([5]; Toxoplasma gondii, Vero): > 57.9 µM

SMILES: CCOC(=O)C1=C(C)NC(C)=C(C(=O)OCC)C1c1ccccc1 [Compound 17]
- IC50 [1]: 60.1 ± 10.6 µM
- EC50 ([2]; Leishmania major): > 63.1 µM
- EC50 ([3]; Leishmania major): > 63.1 µM
- IC50 [4]: > 63.1 µM
- EC50 ([5]; Toxoplasma gondii, Vero): < 50 µM
- EC50 [5]: 49.8 ± 6.5 µM

SMILES: C[C@@H]1[C@H](O)[C@@H](C)/C=C/C=C/C=C/C=C/C=C/C=C/C=C/[C@H](O[C@@H]2O[C@H](C)[C@@H](O)[C@H](N)[C@@H]2O)C[C@@H]2O[C@](O)(C[C@@H](O)C[C@@H](O)[C@H](O)CC[C@@H](O)C[C@@H](O)CC(=O)O[C@H]1C)C[C@H](O)[C@H]2C(=O)O [AmB, amphotericin B, reference compound]
- IC50 [1]: 10.3 ± 1.2 µM

SMILES: CCOC(=O)C1=C(C)NC2=C(C(=O)CC(C)(C)C2)C1c1ccc(OC)cc1 (centres unmarked) [Compound 3]
- IC50 [1]: 49.8 ± 8.9 µM
- EC50 ([2]; Leishmania major): > 56.3 µM
- EC50 ([3]; Leishmania major): > 56.3 µM
- IC50 [4]: 38.7 ± 6.8 µM
- EC50 ([5]; Toxoplasma gondii, Vero): > 56.3 µM

SMILES: CCOC(=O)C1=C(C)NC2=C(C(=O)CC(C)(C)C2)C1c1ccc(O)c(OC)c1 (centres unmarked) [Compound 11]
- IC50 [1]: 45.1 ± 7.9 µM
- EC50 ([2]; Leishmania major): > 54 µM
- EC50 ([3]; Leishmania major): > 54 µM
- IC50 [4]: 48 ± 8.1 µM
- EC50 ([5]; Toxoplasma gondii, Vero): 26.5 ± 3.6 µM

SMILES: CCOC(=O)C1=C(C)NC2=C(C(=O)CC(C)(C)C2)C1c1ccc(OCc2ccccc2)cc1 (racemic) [Compound 4, (±)-ethyl 4-(4-(benzyloxy)phenyl)-2,7,7-trimethyl-5-oxo-1,4,5,6,7,8-hexahydroquinoline-3-carboxylate]
- IC50 [1]: 17.5 ± 3 µM
- EC50 ([2]; Leishmania major): 23.3 ± 3.4 µM
- EC50 ([3]; Leishmania major): > 46.7 µM
- IC50 [4]: 25.1 ± 3.7 µM
- EC50 ([5]; Toxoplasma gondii, Vero): 3.1 ± 0.4 µM

SMILES: CCOC(=O)C1=C(C)NC2=C(C(=O)CC(C)(C)C2)C1c1cccs1 (centres unmarked) [Compound 16]
- IC50 [1]: 12.6 ± 2.1 µM
- EC50 ([2]; Leishmania major): 31.8 ± 5.4 µM
- EC50 ([3]; Leishmania major): > 49.3 µM
- IC50 [4]: 29.9 ± 5.1 µM
- EC50 ([5]; Toxoplasma gondii, Vero): 8.1 ± 1.3 µM

SMILES: CCOC(=O)C1=C(C)NC2=C(C(=O)CC(C)(C)C2)C1c1ccc(C)cc1 (centres unmarked) [Compound 2]
- IC50 [1]: 52.9 ± 9.8 µM
- EC50 ([2]; Leishmania major): > 58.8 µM
- EC50 ([3]; Leishmania major): > 58.8 µM
- IC50 [4]: 47.8 ± 7.6 µM
- EC50 ([5]; Toxoplasma gondii, Vero): > 58.8 µM

SMILES: CCOC(=O)C1=C(C)NC2=C(C(=O)CC(C)(C)C2)C1c1ccccc1[N+](=O)[O-] (racemic) [Compound 9, (±)-ethyl 2,7,7-trimethyl-4-(2-nitrophenyl)-5-oxo-1,4,5,6,7,8-hexahydroquinoline-3-carboxylate]
- IC50 [1]: 4.5 ± 0.7 µM
- EC50 ([2]; Leishmania major): 13.7 µM
- EC50 [2]: 10.6 ± 2.1 µM
- EC50 ([3]; Leishmania major): > 58.2 µM
- IC50 [4]: 12 ± 1.9 µM
- EC50 ([5]; Toxoplasma gondii, Vero): 12 ± 1.9 µM
